Test results taken from the NIST ThermoML archive (doi:10.1021/je300799f).

Assay: xn = mol fraction of the nth substance listed
Conditions: 101 kPa, Liquid, Vibrating tube method

CCCC(=O)OCC [ethyl butanoate] + CCCCCCCCC
Conditions | mass density [kg/m3]
288.15 K, x1 = 0.0379 | 725.8
288.15 K, x1 = 0.1046 | 733.19
288.15 K, x1 = 0.1502 | 738.59
288.15 K, x1 = 0.2013 | 744.84
288.15 K, x1 = 0.2499 | 751.04
288.15 K, x1 = 0.3047 | 758.28
288.15 K, x1 = 0.3427 | 763.5
288.15 K, x1 = 0.3961 | 771.2
288.15 K, x1 = 0.4355 | 776.9
288.15 K, x1 = 0.4957 | 786.1
288.15 K, x1 = 0.5455 | 794.1
288.15 K, x1 = 0.5857 | 800.8
288.15 K, x1 = 0.6498 | 811.8
288.15 K, x1 = 0.7067 | 822.09
288.15 K, x1 = 0.752 | 830.65
288.15 K, x1 = 0.8019 | 840.45
288.15 K, x1 = 0.8502 | 850.42
288.15 K, x1 = 0.904 | 861.91
288.15 K, x1 = 0.9569 | 873.91
288.15 K, x1 = 1 | 884.01
298.15 K, x1 = 0.0486 | 719.05
298.15 K, x1 = 0.0906 | 723.69
298.15 K, x1 = 0.1007 | 724.84
298.15 K, x1 = 0.1495 | 730.49
298.15 K, x1 = 0.2442 | 742.05
298.15 K, x1 = 0.2985 | 749.08
298.15 K, x1 = 0.3131 | 750.97
298.15 K, x1 = 0.3518 | 756.23
298.15 K, x1 = 0.4357 | 768.18
298.15 K, x1 = 0.5028 | 778.32
298.15 K, x1 = 0.5511 | 785.92
298.15 K, x1 = 0.5974 | 793.57
298.15 K, x1 = 0.703 | 811.93
298.15 K, x1 = 0.746 | 819.92
298.15 K, x1 = 0.7879 | 827.92
298.15 K, x1 = 0.8532 | 841.01
298.15 K, x1 = 0.9053 | 852.07
298.15 K, x1 = 1 | 873.5
308.15 K, x1 = 0.0505 | 711.25
308.15 K, x1 = 0.0818 | 714.63
308.15 K, x1 = 0.1528 | 722.65
308.15 K, x1 = 0.1872 | 726.67
308.15 K, x1 = 0.2112 | 729.53
308.15 K, x1 = 0.2818 | 738.36
308.15 K, x1 = 0.3302 | 744.66
308.15 K, x1 = 0.3685 | 749.81
308.15 K, x1 = 0.426 | 757.85
308.15 K, x1 = 0.4773 | 765.37
308.15 K, x1 = 0.5187 | 771.59
308.15 K, x1 = 0.5712 | 779.88
308.15 K, x1 = 0.642 | 791.55
308.15 K, x1 = 0.6753 | 797.37
308.15 K, x1 = 0.726 | 806.38
308.15 K, x1 = 0.7822 | 816.86
308.15 K, x1 = 0.833 | 826.88
308.15 K, x1 = 0.878 | 836.1
308.15 K, x1 = 0.9384 | 848.96
308.15 K, x1 = 1 | 862.85
318.15 K, x1 = 0.0435 | 702.45
318.15 K, x1 = 0.1009 | 708.56
318.15 K, x1 = 0.1439 | 713.46
318.15 K, x1 = 0.2001 | 719.85
318.15 K, x1 = 0.2489 | 725.77
318.15 K, x1 = 0.2861 | 730.43
318.15 K, x1 = 0.355 | 739.26
318.15 K, x1 = 0.402 | 745.62
318.15 K, x1 = 0.4556 | 753.18
318.15 K, x1 = 0.4988 | 759.53
318.15 K, x1 = 0.547 | 766.88
318.15 K, x1 = 0.6011 | 775.45
318.15 K, x1 = 0.656 | 784.53
318.15 K, x1 = 0.6951 | 791.27
318.15 K, x1 = 0.7543 | 801.83
318.15 K, x1 = 0.7999 | 810.52
318.15 K, x1 = 0.8485 | 819.97
318.15 K, x1 = 0.8947 | 829.27
318.15 K, x1 = 0.9545 | 842.03
318.15 K, x1 = 1 | 852.26
328.15 K, x1 = 0.0481 | 695.05
328.15 K, x1 = 0.1134 | 701.93
328.15 K, x1 = 0.1627 | 707.35
328.15 K, x1 = 0.2102 | 712.81
328.15 K, x1 = 0.2589 | 718.53
328.15 K, x1 = 0.3111 | 725
328.15 K, x1 = 0.3588 | 731.17
328.15 K, x1 = 0.402 | 736.91
328.15 K, x1 = 0.4562 | 744.36
328.15 K, x1 = 0.5565 | 759.06
328.15 K, x1 = 0.5996 | 765.77
328.15 K, x1 = 0.6524 | 774.29
328.15 K, x1 = 0.7062 | 783.42
328.15 K, x1 = 0.7544 | 791.91
328.15 K, x1 = 0.806 | 801.44
328.15 K, x1 = 0.8433 | 808.67
328.15 K, x1 = 0.8917 | 818.28
328.15 K, x1 = 0.9532 | 831.23
328.15 K, x1 = 1 | 841.55

CCCC(=O)OC [methyl butanoate] + CCCCCCC
Conditions | mass density [kg/m3]
288.15 K, x1 = 0.0478 | 695.54
288.15 K, x1 = 0.094 | 702.79
288.15 K, x1 = 0.1411 | 710.56
288.15 K, x1 = 0.2025 | 720.91
288.15 K, x1 = 0.2476 | 728.91
288.15 K, x1 = 0.2996 | 738.37
288.15 K, x1 = 0.3531 | 748.53
288.15 K, x1 = 0.4112 | 759.9
288.15 K, x1 = 0.4484 | 767.46
288.15 K, x1 = 0.5023 | 778.63
288.15 K, x1 = 0.5526 | 789.52
288.15 K, x1 = 0.5984 | 799.7
288.15 K, x1 = 0.6471 | 810.83
288.15 K, x1 = 0.7077 | 825.2
288.15 K, x1 = 0.7463 | 834.68
288.15 K, x1 = 0.798 | 847.73
288.15 K, x1 = 0.8912 | 872.29
288.15 K, x1 = 0.9493 | 888.46
288.15 K, x1 = 1 | 903.31
298.15 K, x1 = 0.0485 | 686.88
298.15 K, x1 = 0.0876 | 693
298.15 K, x1 = 0.1389 | 701.34
298.15 K, x1 = 0.2122 | 713.65
298.15 K, x1 = 0.2586 | 721.76
298.15 K, x1 = 0.302 | 729.67
298.15 K, x1 = 0.3571 | 739.98
298.15 K, x1 = 0.4019 | 748.57
298.15 K, x1 = 0.4492 | 758.07
298.15 K, x1 = 0.5017 | 768.87
298.15 K, x1 = 0.5573 | 780.67
298.15 K, x1 = 0.5952 | 789.01
298.15 K, x1 = 0.6466 | 800.69
298.15 K, x1 = 0.7063 | 814.61
298.15 K, x1 = 0.7424 | 823.41
298.15 K, x1 = 0.7993 | 837.66
298.15 K, x1 = 0.8623 | 853.85
298.15 K, x1 = 0.9015 | 864.37
298.15 K, x1 = 0.9507 | 878.23
298.15 K, x1 = 1 | 892.31
308.15 K, x1 = 0.063 | 680.36
308.15 K, x1 = 0.117 | 688.78
308.15 K, x1 = 0.187 | 700.22
308.15 K, x1 = 0.3025 | 720.34
308.15 K, x1 = 0.417 | 741.86
308.15 K, x1 = 0.5047 | 759.48
308.15 K, x1 = 0.5651 | 772.28
308.15 K, x1 = 0.5933 | 778.47
308.15 K, x1 = 0.6532 | 791.9
308.15 K, x1 = 0.7045 | 803.77
308.15 K, x1 = 0.7487 | 814.31
308.15 K, x1 = 0.7648 | 818.37
308.15 K, x1 = 0.789 | 824.36
308.15 K, x1 = 0.8514 | 840.37
308.15 K, x1 = 0.8818 | 848.32
308.15 K, x1 = 0.9257 | 860.13
308.15 K, x1 = 0.9603 | 869.83
308.15 K, x1 = 1 | 881.19
318.15 K, x1 = 0.0768 | 673.72
318.15 K, x1 = 0.089 | 675.62
318.15 K, x1 = 0.1535 | 685.7
318.15 K, x1 = 0.2117 | 695.29
318.15 K, x1 = 0.2567 | 702.97
318.15 K, x1 = 0.305 | 711.44
318.15 K, x1 = 0.3544 | 720.36
318.15 K, x1 = 0.4042 | 729.76
318.15 K, x1 = 0.4351 | 735.72
318.15 K, x1 = 0.5011 | 748.89
318.15 K, x1 = 0.5487 | 758.83
318.15 K, x1 = 0.5962 | 768.97
318.15 K, x1 = 0.6971 | 791.66
318.15 K, x1 = 0.7469 | 803.4
318.15 K, x1 = 0.7973 | 815.75
318.15 K, x1 = 0.8454 | 827.9
318.15 K, x1 = 0.8948 | 840.81
318.15 K, x1 = 0.9513 | 856.25
318.15 K, x1 = 1 | 870.06
328.15 K, x1 = 0.044 | 659.99
328.15 K, x1 = 0.0921 | 667.12
328.15 K, x1 = 0.1388 | 674.29
328.15 K, x1 = 0.189 | 682.37
328.15 K, x1 = 0.2611 | 694.33
328.15 K, x1 = 0.3006 | 701.19
328.15 K, x1 = 0.4098 | 721.06
328.15 K, x1 = 0.4532 | 729.42
328.15 K, x1 = 0.5031 | 739.32
328.15 K, x1 = 0.5522 | 749.41
328.15 K, x1 = 0.5979 | 759.1
328.15 K, x1 = 0.6473 | 769.85
328.15 K, x1 = 0.706 | 783.28
328.15 K, x1 = 0.7456 | 792.62
328.15 K, x1 = 0.7926 | 803.93
328.15 K, x1 = 0.86 | 820.85
328.15 K, x1 = 0.9028 | 832.08
328.15 K, x1 = 0.9508 | 845.05
328.15 K, x1 = 1 | 858.8
